Test results: publication PMC9918900, “New Succinimide–Thiazolidinedione Hybrids as Multitarget Antidiabetic Agents: Design, Synthesis, Bioevaluation, and Molecular Modelling Studies” (Molecules, 2023)

How the values were obtained:
α-glucosidase = test: in vitro α-glucosidase inhibitory activity; format: biochemical, Homo sapiens
Procedure: The inhibitory analyses for α-glucosidase were carried out in accordance with the protocols reported in the literature; the inhibitory activities of the synthesized hybrids were calculated utilizing screening assay tools.

rats = test: acute oral toxicity study, limit test (OECD up and down procedure); format: in vivo
Procedure: For the acute toxicity study, a limit test on the laboratory animals at 2000 mg/kg body weight was selected and the up and down procedure (UDP) was followed as per the guidelines of the Organization for Economic Cooperation and Development (OECD). The purpose was to evaluate the dose necessary to perform various pharmacological activities.
Healthy young adult male rats of about 8 to 12 weeks old were selected for dosing.
The rats were randomly selected, marked for an individual identification, and retained in their cages for at least 5 days before dosing to acclimatize to the laboratory conditions. Prior to dosing, the animals were fasted and they were refrained from food, not water, for 16–18 h.
After the fasting period, the weight of each animal was determined and according to the body weight of the animals, the dose at 2000 mg/kg body weight was calculated for each animal. A unique dose of the studied compound 10d was administered to the animals for the UDP study by the oral route using an intragastric cannula 16 G, and it was planned to dose the five animals on the same day. […] The onset time, toxic reactions, and length of the recovery period determined the duration of the observation and when considered necessary, may be extended. […] Individual observations were recorded and maintained systematically for each animal. […]

[1] = test system: streptozotocin-induced diabetic rats; test: in vivo antidiabetic activity, fasting plasma glucose level; design: species or system Wistar rats; conditions: STZ-induced diabetic rats, 28th day
Procedure: (§1) The antidiabetic activity of the synthesized compound 10d was evaluated using a streptozotocin-induced diabetic rats model.
(§2) Male Wistar rats weighing 150 to 230 gm were used for the study which were housed in polyacrylic cages (no more than six animals per cage) with dimensions of 38 × 23 × 10 cm and maintained under standard laboratory conditions with a dark/light cycle of 14 h of dark and 10 h of light at a temperature of 25 °C. The animals were provided with a standard diet (dry pellet) and water ad libitum. Before the start of the experimental procedures, the rats were acclimatized to laboratory conditions for 10 days. All the experiments were approved and performed as per the guidelines of the Departmental Research Ethics Committee under letter No. DREC/050 [49].
(§3) Non-insulin-dependent diabetes mellitus was induced in fasted rats weighing 150–230 gm using a single dose of streptozotocin (STZ) at a dose of 60 mg/kg intraperitoneally after 15 min of the administration of nicotinamide at a 120 mg/kg dose i.p. Nicotinamide was prepared in normal saline while in citrate buffer (pH 4.5), STZ was prepared. After the induction of diabetes, the increase in the plasma glucose level was measured at 72 h and then measured on the 7th day to confirm hyperglycemia. For the diagnosis of diabetes, the threshold value of the fasting plasma glucose level was considered to be more than 126 mg/dl. For the study, only the animals with permanent NIIDM were utilized.
The animals were classified into 5 groups with 6 animals in each group (n = 6). […] The fasting glucose concentration was measured on the 0, 7th, 14th, and 28th day of the administration of the extract. During the experimental tenure, the weights of the rats were determined daily and the mean change was recorded.

[2] = test system: streptozotocin-induced diabetic rats; test: effect on body weight; format: in vivo, Wistar rats; conditions: for Change in Body Weight, After Treatment: 28 days
Procedure: as §1, §2, §3
(§4) The animals were classified into 5 groups with 6 animals in each group (n = 6). Group I comprised of normal control rats which were daily administered drinking water only; group II served as diabetic control rats (disease group); group III served as the positive control and were administered 0.5 mg/kg of the standard drug glibenclamide; and group IV and V served as the test group rats and were administered the test compound 10d at 10 mg/kg and 20 mg/kg, respectively, for twenty-eight days. The fasting glucose concentration was measured on the 0, 7th, 14th, and 28th day of the administration of the extract. During the experimental tenure, the weights of the rats were determined daily and the mean change was recorded.

[3] = test system: streptozotocin-induced diabetic rats; test: liver and renal serum biomarkers; format: in vivo, Wistar rats; conditions: 28th day
Procedure: as §3, §4
The animals were euthanized (sacrificed) via cervical dislocation on the 28th day to observe the biochemical parameters. The parameters studied were triglyceride (TGL), cholesterol, low-density lipoprotein, and high-density lipoprotein (LDL and HDL). The Minias Globe Diagnostic kits were used for cholesterol and TGL. Semi-autoanalyzers were used for the analysis. The serum samples from the rats were also checked for alanine aminotransferase (ALT), aspartate aminotransferase (AST), lactate dehydrogenase (LDH), serum alkaline phosphatase (ALP), and creatinine and urea levels utilizing commercially available kits of Crest Biosystems. The statistical analysis was also performed as per the previous procedure.

With `CC(C)(C=C1SC(=O)N(C(=O)CN2CCOCC2)C1=O)C1CC(=O)N(Cc2ccccc2)C1=O` (stereo not shown) [10d] the IC50 (α-glucosidase) was 10 µM, the “% α-Glucosidase Inhibition” value (α-glucosidase; 31.25 µM) was 67.10 ± 0.95% and the “% α-Glucosidase Inhibition” value (α-glucosidase; 62.5 µM) was 72.26 ± 0.77%. The “% α-Glucosidase Inhibition” value (α-glucosidase; 125 µM) was 77.93 ± 0.90%, the “% α-Glucosidase Inhibition” value (α-glucosidase; 250 µM) was 83.83 ± 0.66% and the “% α-Glucosidase Inhibition” value (α-glucosidase; 500 µM) was 88.43 ± 1.26%. For the same compound, the “acute toxicity observation (behavior, mortality)” value (rats; limit dose 2000 mg/kg body weight, observed 14 days) was “no abnormal changes in their behavior and no mortality”, the “LD50 class as per OECD guidelines” value (rats; maximum dose 2000 mg/kg) was “class IV” and the blood glucose level ([1]; 10 mg/kg) was 93.15 mg/dL. For the same compound, the blood glucose level ([1]; 20 mg/kg) was 70.60 mg/dL, the “Change in Body Weight, After Induction” value ([2]; 10mg (10 mg/kg) group) was 154.22 ± 3.62 gm and the “Change in Body Weight, Before Induction” value ([2]; 10mg (10 mg/kg) group) was 191.23 ± 1.50 ^ns gm. For the same compound, the “Change in Body Weight, After Treatment” value ([2]; 10mg (10 mg/kg) group) was 182.43 ± 5.76 gm, the “Change in Body Weight, After Induction” value ([2]; 20mg (20 mg/kg) group) was 171.60 ± 1.90 ^ns gm and the “Change in Body Weight, Before Induction” value ([2]; 20mg (20 mg/kg) group) was 204.66 ± 3.60 gm. For the same compound, the “Change in Body Weight, After Treatment” value ([2]; 20mg (20 mg/kg) group) was 198.19 ± 4.66 gm, the ALP ([3]; 10mg (10 mg/kg)) was 184.43 ± 3.83 U/L and the ALT ([3]; 10mg (10 mg/kg)) was 136.80 ± 2.15 U/L. The AST ([3]; 10mg (10 mg/kg)) was 123.40 ± 3.70 U/L, the Creatinine ([3]; 10mg (10 mg/kg)) was 0.51 ± 0.57 ^ns mg/dl and the LDH ([3]; 10mg (10 mg/kg)) was 930.11 ± 4.26 U/L. The Urea ([3]; 10mg (10 mg/kg)) was 75.26 ± 2.44 mg/dL, the ALP ([3]; 20mg (20 mg/kg)) was 122.80 ± 2.00 U/L and the ALT ([3]; 20mg (20 mg/kg)) was 60.42 ± 2.20 U/L. For the same compound, the AST ([3]; 20mg (20 mg/kg)) was 94.32 ± 2.30 U/L, the Creatinine ([3]; 20mg (20 mg/kg)) was 0.42 ± 0.31 ^ns mg/dl and the LDH ([3]; 20mg (20 mg/kg)) was 850.53 ± 4.41 U/L. For the same compound, the Urea ([3]; 20mg (20 mg/kg)) was 51.53 ± 2.23 mg/dL.
